In ChEMBL document CHEMBL1687887, “Evolution of potent and stable placental-growth-factor-1-targeting CovX-bodies from phage display peptide discovery” (J Med Chem, 2011):
Bridge positions count the residues as written; N and C are the ends. Peptide text beside a SMILES is read from it. * marks the point of attachment. X1 = O=C(COCC(=O)*)Nc1ccc(CCC(=O)N2CCC2=O)cc1

Legend:
Placenta growth factor [1] = target: T1, Placenta growth factor (Mus musculus, UniProt P49764); experiment: Inhibition of mouse PlGF-VEGFR-1 interaction by ELISA
T1 sequence (P49764 whole entry): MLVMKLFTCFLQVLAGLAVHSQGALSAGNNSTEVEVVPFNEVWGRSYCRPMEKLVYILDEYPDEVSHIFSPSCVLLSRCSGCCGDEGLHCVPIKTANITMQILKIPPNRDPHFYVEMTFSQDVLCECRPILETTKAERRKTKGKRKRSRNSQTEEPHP

Placenta growth factor [2] = target: T2, Placenta growth factor (Homo sapiens, UniProt P49763); experiment: Binding affinity to human PlGF-1; conditions: read-out: Kd
T2 sequence (P49763 whole entry): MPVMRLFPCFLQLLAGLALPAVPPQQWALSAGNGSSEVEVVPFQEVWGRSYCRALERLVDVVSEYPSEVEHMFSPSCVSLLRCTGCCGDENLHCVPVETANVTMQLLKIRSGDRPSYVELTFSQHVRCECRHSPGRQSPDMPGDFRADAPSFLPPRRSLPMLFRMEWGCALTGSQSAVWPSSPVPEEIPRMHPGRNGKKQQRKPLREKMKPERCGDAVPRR

Placenta growth factor [3] = target: T2, Placenta growth factor; experiment: Inhibition of human PlGF-1-VEGFR-1 interaction by ELISA

| SMILES | IC50 (Placenta growth factor [1]) [nM] | Kd (Placenta growth factor [2]) [nM] | IC50 (Placenta growth factor [3]) [nM] |
| --- | --- | --- | --- |
| CSCC[C@H](NC(=O)[C@@H](NC(=O)[C@H](CCCCNC(C)=O)NC(=O)[C@@H]1CSSC[C@H](NC(=O)[C@H](CCCCNC(=O)COCC(=O)Nc2ccc(CCC(=O)N3CCC3=O)cc2)NC(=O)[C@H](CC(=O)O)NC(=O)[C@H](Cc2ccccc2)NC(C)=O)C(=O)N[C@@H](CC(N)=O)C(=O)N[C@@H](Cc2c[nH]c3ccccc23)C(=O)N[C@@H](C(C)C)C(=O)N[C@@H]([C@@H](C)O)C(=O)N[C@@H](CC(C)C)C(=O)N2CCC[C@H]2C(=O)N[C@@H](Cc2cnc[nH]2)C(=O)N1)C(C)C)C(N)=O (Ac-FDK(X1)CNWVTLPHCK(Ac)VM-NH2; disulfide 4-12) | > 1000 | > 1000 |  |
| CSCC[C@H](NC(=O)[C@@H](NC(=O)[C@H](CCCCNC(C)=O)NC(=O)[C@@H]1CSSC[C@H](NC(=O)[C@@H](NC(=O)[C@H](CC(=O)O)NC(=O)[C@H](Cc2ccccc2)NC(C)=O)C(C)C)C(=O)N[C@@H](CCCCNC(=O)COCC(=O)Nc2ccc(CCC(=O)N3CCC3=O)cc2)C(=O)N[C@@H](Cc2c[nH]c3ccccc23)C(=O)N[C@@H](C(C)C)C(=O)N[C@@H]([C@@H](C)O)C(=O)N[C@@H](CC(C)C)C(=O)N2CCC[C@H]2C(=O)N[C@@H](Cc2cnc[nH]2)C(=O)N1)C(C)C)C(N)=O (Ac-FDVCK(X1)WVTLPHCK(Ac)VM-NH2; disulfide 4-12) | 624 | 6 |  |
| CSCC[C@H](NC(=O)[C@@H](NC(=O)[C@H](CCCCN)NC(=O)[C@@H]1CSSC[C@H](NC(=O)[C@@H](NC(=O)[C@H](CC(=O)O)NC(=O)[C@H](Cc2ccccc2)NC(C)=O)C(C)C)C(=O)N[C@@H](CCCCN)C(=O)N[C@@H](Cc2c[nH]c3ccccc23)C(=O)N[C@@H](C(C)C)C(=O)N[C@@H]([C@@H](C)O)C(=O)N[C@@H](CC(C)C)C(=O)N2CCC[C@H]2C(=O)N[C@@H](Cc2cnc[nH]2)C(=O)N1)C(C)C)C(N)=O (Ac-FDVCKWVTLPHCKVM-NH2; disulfide 4-12) |  | 1000 | 1000 |
| CSCC[C@H](NC(=O)[C@@H](NC(=O)[C@H](CCCCNC(C)=O)NC(=O)[C@@H]1CSSC[C@H](NC(=O)[C@@H](NC(=O)[C@H](CC(=O)O)NC(=O)[C@H](Cc2ccccc2)NC(C)=O)C(C)C)C(=O)N[C@@H](CC(N)=O)C(=O)N[C@@H](CCCCNC(=O)COCC(=O)Nc2ccc(CCC(=O)N3CCC3=O)cc2)C(=O)N[C@@H](C(C)C)C(=O)N[C@@H]([C@@H](C)O)C(=O)N[C@@H](CC(C)C)C(=O)N2CCC[C@H]2C(=O)N[C@@H](Cc2cnc[nH]2)C(=O)N1)C(C)C)C(N)=O (Ac-FDVCNK(X1)VTLPHCK(Ac)VM-NH2; disulfide 4-12) | > 1000 | > 1000 |  |
| CC[C@H](C)[C@@H]1NC(=O)[C@H](Cc2ccc(O)cc2)NC(=O)[C@H](Cc2cnc[nH]2)NC(=O)[C@@H](NC(=O)[C@@H](NC(=O)[C@H](CCC(=O)O)NC(=O)[C@H](Cc2ccccc2)NC(C)=O)C(C)C)CSSC[C@@H](C(=O)N[C@H](C(=O)N[C@@H](CCCN=C(N)N)C(=O)N[C@@H](Cc2ccc(O)cc2)C(N)=O)[C@@H](C)O)NC(=O)[C@H](Cc2cnc[nH]2)NC(=O)[C@@H]2CCCN2C(=O)[C@H](CC(C)C)NC(=O)[C@H](CCCN=C(N)N)NC1=O (Ac-FEVCHYIRLPHCTRY-NH2; disulfide 4-12) | 400 |  |  |
| CSCC[C@H](NC(=O)[C@H](Cc1ccccc1)NC(C)=O)C(=O)N[C@H](C(=O)N[C@H]1CSSC[C@@H](C(=O)N2CCC[C@H]2C(=O)N[C@@H](CCSC)C(=O)N[C@@H](CCC(N)=O)C(N)=O)NC(=O)[C@H](Cc2c[nH]c3ccccc23)NC(=O)[C@@H]2CCCN2C(=O)[C@H](CC(C)C)NC(=O)[C@H]([C@@H](C)O)NC(=O)[C@H](C(C)C)NC(=O)[C@H](Cc2ccc(O)cc2)NC(=O)[C@H](CC(N)=O)NC1=O)C(C)C (Ac-FMVCNYVTLPWCPMQ-NH2; disulfide 4-12) |  |  | 19000 |
| CC[C@H](C)[C@H](NC(=O)[C@H](C)NC(=O)[C@H](CC(C)C)NC(=O)[C@@H]1CSSC[C@H](NC(=O)[C@@H](NC(=O)[C@H](CC(=O)O)NC(=O)[C@H](CC(C)C)NC(C)=O)C(C)C)C(=O)N[C@@H](CC(C)C)C(=O)N[C@@H](Cc2c[nH]c3ccccc23)C(=O)N[C@@H](C(C)C)C(=O)N[C@@H](CO)C(=O)N[C@@H](CC(C)C)C(=O)N2CCC[C@H]2C(=O)N[C@@H](Cc2cnc[nH]2)C(=O)N1)C(N)=O (Ac-LDVCLWVSLPHCLAI-NH2; disulfide 4-12) |  |  | 100000 |
| CC[C@H](C)[C@H](NC(=O)[C@@H]1CSSC[C@H](NC(=O)[C@@H](NC(=O)[C@H](CCC(N)=O)NC(=O)[C@H](Cc2c[nH]c3ccccc23)NC(C)=O)[C@@H](C)CC)C(=O)N[C@@H](CC(=O)O)C(=O)N[C@@H]([C@@H](C)CC)C(=O)N[C@@H](CC(C)C)C(=O)N[C@@H]([C@@H](C)O)C(=O)N[C@@H](CC(C)C)C(=O)N2CCC[C@H]2C(=O)N[C@@H](Cc2cnc[nH]2)C(=O)N1)C(=O)N[C@@H](Cc1ccccc1)C(=O)N[C@@H](CC(N)=O)C(N)=O (Ac-WQICDILTLPHCIFN-NH2; disulfide 4-12) |  |  | 100000 |
| CC[C@H](C)[C@H](NC(=O)[C@H](CC(=O)O)NC(=O)[C@H](Cc1ccc(O)cc1)NC(C)=O)C(=O)N[C@H]1CSSC[C@@H](C(=O)N[C@@H](Cc2ccccc2)C(=O)N[C@@H](C)C(=O)N[C@H](C(N)=O)C(C)C)NC(=O)[C@H](Cc2cnc[nH]2)NC(=O)[C@@H]2CCCN2C(=O)[C@H](CC(C)C)NC(=O)[C@H](CCCNC(=N)N)NC(=O)[C@H]([C@@H](C)CC)NC(=O)[C@H](Cc2ccc(O)cc2)NC(=O)[C@H](Cc2cnc[nH]2)NC1=O (Ac-YDICHYIRLPHCFAV-NH2; disulfide 4-12) |  |  | 100000 |
| CC[C@H](C)[C@H](NC(=O)[C@H](CC(=O)O)NC(=O)[C@H](Cc1ccc(O)cc1)NC(C)=O)C(=O)N[C@H]1CSSC[C@@H](C(=O)N[C@@H](CCCCN)C(=O)N[C@@H](C)C(=O)N[C@H](C(N)=O)C(C)C)NC(=O)[C@H](Cc2cnc[nH]2)NC(=O)[C@@H]2CCCN2C(=O)[C@H](CC(C)C)NC(=O)[C@H](CCCNC(=N)N)NC(=O)[C@H]([C@@H](C)CC)NC(=O)[C@H](Cc2ccc(O)cc2)NC(=O)[C@H](CCCCN)NC1=O (Ac-YDICKYIRLPHCKAV-NH2; disulfide 4-12) |  |  | 9000 |
| CC[C@H](C)[C@H](NC(=O)[C@H](CC(=O)O)NC(=O)[C@H](Cc1ccc(O)cc1)NC(C)=O)C(=O)N[C@H]1CSSC[C@@H](C(=O)N[C@@H](CCCN=C(N)N)C(=O)N[C@@H](C)C(=O)N[C@H](C(N)=O)C(C)C)NC(=O)[C@H](Cc2cnc[nH]2)NC(=O)[C@@H]2CCCN2C(=O)[C@H](CC(C)C)NC(=O)[C@H](CCCNC(=N)N)NC(=O)[C@H]([C@@H](C)CC)NC(=O)[C@H](Cc2ccc(O)cc2)NC(=O)[C@H](CCCCN)NC1=O (Ac-YDICKYIRLPHCRAV-NH2; disulfide 4-12) |  |  | 9000 |
| CSCC[C@H](NC(=O)[C@@H](NC(=O)[C@H](CCCCN)NC(=O)[C@@H]1CSSC[C@H](NC(=O)[C@@H](NC(=O)[C@H](CC(=O)O)NC(=O)[C@H](Cc2ccccc2)NC(=O)COCC(=O)Nc2ccc(CCC(=O)N3CCC3=O)cc2)C(C)C)C(=O)N[C@@H](CCCCN)C(=O)N[C@@H](Cc2c[nH]c3ccccc23)C(=O)N[C@@H](C(C)C)C(=O)N[C@@H]([C@@H](C)O)C(=O)N[C@@H](CC(C)C)C(=O)N2CCC[C@H]2C(=O)N[C@@H](Cc2cnc[nH]2)C(=O)N1)C(C)C)C(N)=O (X1-FDVCKWVTLPHCKVM-NH2; disulfide 4-12) |  | 200 | 1000 |
